Experimental findings from patent publication US11117900B2 (Vertex Pharmaceuticals Incorporated, priority 2012, dated 2021) are described below.

The test system of this assay is HCT116 colorectal cancer cells. The assay can be described thus: Cisplatin sensitization assay (96 h MTS cell viability).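 Note: compound concentration needed to lower the IC50 of Cisplatin alone by a set fold.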 Format: cell-based. The following applies: Cisplatin sensitization value. In a few lines: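 The MTS viability read, after 1 h with reagent, followed 96 h of co-treatment at 37° C. in 5% CO2. Both compound and cisplatin were titrated 2-fold from a 10 μM top final concentration in a complete concentration matrix on HCT116 cells. Scores +++/++/+ reflect cisplatin sensitization value ranges.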
For `Nc1nn2cc(F)cnc2c1C(=O)Nc1cnccc1-c1ccccc1` [I-C-5, 2-amino-6-fluoro-N-(4-phenylpyridin-3-yl)pyrazolo[1,5-a]pyrimidine-3-carboxamide], the “Cisplatin Sensitization Assay” value is given as “+++ (Compounds with a Cisplatin sensitization value of <0.02 μM are marked with “+++.”)”.
Consider `COCCn1cncc1-c1ccncc1NC(=O)c1c(N)nn2cc(F)cnc12` [I-C-83, 2-amino-6-fluoro-N-(4-(1-(2-methoxyethyl)-1H-imidazol-5-yl)pyridin-3-yl)pyrazolo[1,5-a]pyrimidine-3-carboxamide], for which the “Cisplatin Sensitization Assay” value is on record as “++ (Compounds with a Cisplatin sensitization value >0.02 μM but <0.2 μM are marked with “++.”)”.
As to `CN1CCC(C(=O)N2CCN(c3c(F)cncc3NC(=O)c3c(N)nn4cc(F)cnc34)CC2)C1` (stereo not shown) [I-N-156, 2-amino-6-fluoro-N-(5-fluoro-4-(4-(1-methylpyrrolidine-3-carbonyl)piperazin-1-yl)pyridin-3-yl)pyrazolo[1,5-a]pyrimidine-3-carboxamide], the “Cisplatin Sensitization Assay” value was “+++ (Compounds with a Cisplatin sensitization value of <0.02 μM are marked with “+++.”)”.
`CN1CC2CN(C(=O)C3CCN(c4c(F)cncc4NC(=O)c4c(N)nn5cc(F)cnc45)CC3)CC2C1` (stereo not shown) [I-G-18, 2-amino-6-fluoro-N-(5-fluoro-4-(4-(5-methyloctahydropyrrolo[3,4-c]pyrrole-2-carbonyl)piperidin-1-yl)pyridin-3-yl)pyrazolo[1,5-a]pyrimidine-3-carboxamide]: the “Cisplatin Sensitization Assay” value is “+++ (Compounds with a Cisplatin sensitization value of <0.02 μM are marked with “+++.”)”.
Consider `CN(C)CC1CCN(c2ccncc2NC(=O)c2c(N)nn3cc(Cl)cnc23)CC1` [I-N-45, 2-amino-6-chloro-N-(4-(4-((dimethylamino)methyl)piperidin-1-yl)pyridin-3-yl)pyrazolo[1,5-a]pyrimidine-3-carboxamide], for which the “Cisplatin Sensitization Assay” value was “++ (Compounds with a Cisplatin sensitization value >0.02 μM but <0.2 μM are marked with “++.”)”.
Turning to `CN1CCN(C(=O)c2ccc(-c3ccncc3NC(=O)c3c(N)nn4cc(F)cnc34)cn2)CC1` [I-C-19, 2-amino-6-fluoro-N-(6-(4-methylpiperazine-1-carbonyl)-[3,4′-bipyridin]-3′-yl)pyrazolo[1,5-a]pyrimidine-3-carboxamide], the “Cisplatin Sensitization Assay” value was “++ (Compounds with a Cisplatin sensitization value >0.02 μM but <0.2 μM are marked with “++.”)”.
In the case of `CN1CCCCC1C(=O)N1CCN(c2c(F)cncc2NC(=O)c2c(N)nn3cc(F)cnc23)CC1` (stereo not shown) [I-N-214, 2-amino-6-fluoro-N-(5-fluoro-4-(4-(1-methylpiperidine-2-carbonyl)piperazin-1-yl)pyridin-3-yl)pyrazolo[1,5-a]pyrimidine-3-carboxamide], the “Cisplatin Sensitization Assay” value is “++ (Compounds with a Cisplatin sensitization value >0.02 μM but <0.2 μM are marked with “++.”)”.
For the compound `Cc1nccn1-c1ccncc1NC(=O)c1c(N)nn2cc(F)cnc12` [I-N-28, 2-amino-6-fluoro-N-(4-(2-methyl-1H-imidazol-1-yl)pyridin-3-yl)pyrazolo[1,5-a]pyrimidine-3-carboxamide], the “Cisplatin Sensitization Assay” value is given as “+++ (Compounds with a Cisplatin sensitization value of <0.02 μM are marked with “+++.”)”.
In the case of `CN1CCN(C(=O)c2cnc(-c3ccncc3NC(=O)c3c(N)nn4cc(F)cnc34)c(Cl)c2)CC1` [I-C-46, 2-amino-N-(3-chloro-5-(4-methylpiperazine-1-carbonyl)-[2,4′-bipyridin]-3′-yl)-6-fluoropyrazolo[1,5-a]pyrimidine-3-carboxamide], the “Cisplatin Sensitization Assay” value is “+ (Compounds with a Cisplatin sensitization value >0.2 μM but <5 μM are marked with “+.”)”.
`N#CC1(C(=O)N2CCC(c3ccncc3NC(=O)c3c(N)nn4cc(F)cnc34)CC2)CC1` [I-C-71, 2-amino-N-(4-(1-(1-cyanocyclopropanecarbonyl)piperidin-4-yl)pyridin-3-yl)-6-fluoropyrazolo[1,5-a]pyrimidine-3-carboxamide]: the “Cisplatin Sensitization Assay” value was “+++ (Compounds with a Cisplatin sensitization value of <0.02 μM are marked with “+++.”)”.
`Nc1nn2cc(F)cnc2c1C(=O)Nc1cncc(C2CC2)c1N1CCN(C2COC2)CC1` [I-N-32, 2-amino-N-(5-cyclopropyl-4-(4-(oxetan-3-yl)piperazin-1-yl)pyridin-3-yl)-6-fluoropyrazolo[1,5-a]pyrimidine-3-carboxamide]: the “Cisplatin Sensitization Assay” value is “++ (Compounds with a Cisplatin sensitization value >0.02 μM but <0.2 μM are marked with “++.”)”.
Consider `C[C@@H]1CN(C(=O)C2CCN(c3c(F)cncc3NC(=O)c3c(N)nn4cc(F)cnc34)CC2)CCN1C` [I-G-50, (R)-2-amino-N-(4-(4-(3,4-dimethylpiperazine-1-carbonyl)piperidin-1-yl)-5-fluoropyridin-3-yl)-6-fluoropyrazolo[1,5-a]pyrimidine-3-carboxamide], for which the “Cisplatin Sensitization Assay” value is recorded as “+++ (Compounds with a Cisplatin sensitization value of <0.02 μM are marked with “+++.”)”.
For the compound `Nc1nn2cc(F)cnc2c1C(=O)Nc1cncc(F)c1N1CCN(C2COC2)CC1` [I-N-13, 2-amino-6-fluoro-N-(5-fluoro-4-(4-(oxetan-3-yl)piperazin-1-yl)pyridin-3-yl)pyrazolo[1,5-a]pyrimidine-3-carboxamide], the “Cisplatin Sensitization Assay” value is on record as “+++ (Compounds with a Cisplatin sensitization value of <0.02 μM are marked with “+++.”)”.
For the compound `Nc1nn2cc(Cl)cnc2c1C(=O)Nc1cnccc1OC1CC2(CNC2)C1` [I-O-72, N-(4-(2-azaspiro[3.3]heptan-6-yloxy)pyridin-3-yl)-2-amino-6-chloropyrazolo[1,5-a]pyrimidine-3-carboxamide], the “Cisplatin Sensitization Assay” value is “+ (Compounds with a Cisplatin sensitization value >0.2 μM but <5 μM are marked with “+.”)”.
`CN1CCN(c2ccncc2NC(=O)c2c(N)nn3cc(CC#N)cnc23)CC1` [I-N-82, 2-amino-6-(cyanomethyl)-N-(4-(4-methylpiperazin-1-yl)pyridin-3-yl)pyrazolo[1,5-a]pyrimidine-3-carboxamide]: the “Cisplatin Sensitization Assay” value is given as “++ (Compounds with a Cisplatin sensitization value >0.02 μM but <0.2 μM are marked with “++.”)”.
Next, `COCC1CCN(c2ccncc2NC(=O)c2c(N)nn3cc(F)cnc23)CC1` [I-N-282, 2-amino-6-fluoro-N-(4-(4-(methoxymethyl)piperidin-1-yl)pyridin-3-yl)pyrazolo[1,5-a]pyrimidine-3-carboxamide]: “+++ (Compounds with a Cisplatin sensitization value of <0.02 μM are marked with “+++.”)”.
The result for `Nc1nn2cc(Cl)cnc2c1C(=O)Nc1cnccc1N1CCN2CCC[C@H]2C1` [I-N-71, (S)-2-amino-6-chloro-N-(4-(hexahydropyrrolo[1,2-a]pyrazin-2(1H)-yl)pyridin-3-yl)pyrazolo[1,5-a]pyrimidine-3-carboxamide] reads “+++ (Compounds with a Cisplatin sensitization value of <0.02 μM are marked with “+++.”)”; that for `Nc1nn2cc(F)cnc2c1C(=O)Nc1cncc(F)c1N1CCN(C(=O)C2CN3CCC2CC3)CC1` (stereo not shown) [I-N-130, 2-amino-6-fluoro-N-(5-fluoro-4-(4-(quinuclidine-3-carbonyl)piperazin-1-yl)pyridin-3-yl)pyrazolo[1,5-a]pyrimidine-3-carboxamide], “++ (Compounds with a Cisplatin sensitization value >0.02 μM but <0.2 μM are marked with “++.”)”; that for `Cc1ccncc1-c1ccncc1NC(=O)c1c(N)nn2cc(F)cnc12` [I-C-30, 2-amino-6-fluoro-N-(4-methyl-[3,4′-bipyridin]-3′-yl)pyrazolo[1,5-a]pyrimidine-3-carboxamide], “+++ (Compounds with a Cisplatin sensitization value of <0.02 μM are marked with “+++.”)”.
In the case of `Cc1cncc(NC(=O)c2c(N)nn3cc(F)cnc23)c1N1CCC(C(=O)N2CCN(C)CC2)CC1` [I-G-55, 2-amino-6-fluoro-N-(5-methyl-4-(4-(4-methylpiperazine-1-carbonyl)piperidin-1-yl)pyridin-3-yl)pyrazolo[1,5-a]pyrimidine-3-carboxamide], the “Cisplatin Sensitization Assay” value was “+++ (Compounds with a Cisplatin sensitization value of <0.02 μM are marked with “+++.”)”.
Next, `CN1CCC(c2ccncc2NC(=O)c2c(N)nn3cc(F)cnc23)CC1=O` (stereo not shown) [I-C-73, 2-amino-6-fluoro-N-(4-(1-methyl-2-oxopiperidin-4-yl)pyridin-3-yl)pyrazolo[1,5-a]pyrimidine-3-carboxamide]: “++ (Compounds with a Cisplatin sensitization value >0.02 μM but <0.2 μM are marked with “++.”)”.
In the case of `C[N+]1([O-])CCN(C(=O)C2CCN(c3c(F)cncc3NC(=O)c3c(N)nn4cc(F)cnc34)CC2)CC1` [I-G-95, 4-(1-(3-(2-amino-6-fluoropyrazolo[1,5-a]pyrimidine-3-carboxamido)-5-fluoropyridin-4-yl)piperidine-4-carbonyl)-1-methylpiperazine 1-oxide], the “Cisplatin Sensitization Assay” value is “+++ (Compounds with a Cisplatin sensitization value of <0.02 μM are marked with “+++.”)”.
Turning to `CN1CCN(c2c(NC(=O)c3c(N)nn4cc(F)cnc34)cncc2C2CC2)CC1` [I-N-5, 2-amino-N-(5-cyclopropyl-4-(4-methylpiperazin-1-yl)pyridin-3-yl)-6-fluoropyrazolo[1,5-a]pyrimidine-3-carboxamide], the “Cisplatin Sensitization Assay” value is given as “++ (Compounds with a Cisplatin sensitization value >0.02 μM but <0.2 μM are marked with “++.”)”.
`COCCN(C)C(=O)C1CCN(c2c(F)cncc2NC(=O)c2c(N)nn3cc(F)cnc23)CC1` [I-G-40, 2-amino-6-fluoro-N-(5-fluoro-4-(4-((2-methoxyethyl)(methyl)carbamoyl)piperidin-1-yl)pyridin-3-yl)pyrazolo[1,5-a]pyrimidine-3-carboxamide]: the “Cisplatin Sensitization Assay” value is “+++ (Compounds with a Cisplatin sensitization value of <0.02 μM are marked with “+++.”)”.
As to `COC1CN(C(=O)C2CCN(c3c(F)cncc3NC(=O)c3c(N)nn4cc(F)cnc34)CC2)C1` [I-G-21, 2-amino-6-fluoro-N-(5-fluoro-4-(4-(3-methoxyazetidine-1-carbonyl)piperidin-1-yl)pyridin-3-yl)pyrazolo[1,5-a]pyrimidine-3-carboxamide], the “Cisplatin Sensitization Assay” value was “+++ (Compounds with a Cisplatin sensitization value of <0.02 μM are marked with “+++.”)”.
